Reference: patent US11142533B2, “Macrocycles for use in treating disease” (TURNING POINT THERAPEUTICS, INC., priority 2019, dated 2021)
Read-outs that look alike come from different tables or passages of the source.

Key:
[1] = biological target: T1, Ba/F3 cell-derived tumors with the EML4-ALK L1198F/G1202R fusion (Homo sapiens, UniProt Q9UM73, G1202R/L1198F)
T1 sequence (Q9UM73 with tags, fused parts or gaps L1198F/G1202R): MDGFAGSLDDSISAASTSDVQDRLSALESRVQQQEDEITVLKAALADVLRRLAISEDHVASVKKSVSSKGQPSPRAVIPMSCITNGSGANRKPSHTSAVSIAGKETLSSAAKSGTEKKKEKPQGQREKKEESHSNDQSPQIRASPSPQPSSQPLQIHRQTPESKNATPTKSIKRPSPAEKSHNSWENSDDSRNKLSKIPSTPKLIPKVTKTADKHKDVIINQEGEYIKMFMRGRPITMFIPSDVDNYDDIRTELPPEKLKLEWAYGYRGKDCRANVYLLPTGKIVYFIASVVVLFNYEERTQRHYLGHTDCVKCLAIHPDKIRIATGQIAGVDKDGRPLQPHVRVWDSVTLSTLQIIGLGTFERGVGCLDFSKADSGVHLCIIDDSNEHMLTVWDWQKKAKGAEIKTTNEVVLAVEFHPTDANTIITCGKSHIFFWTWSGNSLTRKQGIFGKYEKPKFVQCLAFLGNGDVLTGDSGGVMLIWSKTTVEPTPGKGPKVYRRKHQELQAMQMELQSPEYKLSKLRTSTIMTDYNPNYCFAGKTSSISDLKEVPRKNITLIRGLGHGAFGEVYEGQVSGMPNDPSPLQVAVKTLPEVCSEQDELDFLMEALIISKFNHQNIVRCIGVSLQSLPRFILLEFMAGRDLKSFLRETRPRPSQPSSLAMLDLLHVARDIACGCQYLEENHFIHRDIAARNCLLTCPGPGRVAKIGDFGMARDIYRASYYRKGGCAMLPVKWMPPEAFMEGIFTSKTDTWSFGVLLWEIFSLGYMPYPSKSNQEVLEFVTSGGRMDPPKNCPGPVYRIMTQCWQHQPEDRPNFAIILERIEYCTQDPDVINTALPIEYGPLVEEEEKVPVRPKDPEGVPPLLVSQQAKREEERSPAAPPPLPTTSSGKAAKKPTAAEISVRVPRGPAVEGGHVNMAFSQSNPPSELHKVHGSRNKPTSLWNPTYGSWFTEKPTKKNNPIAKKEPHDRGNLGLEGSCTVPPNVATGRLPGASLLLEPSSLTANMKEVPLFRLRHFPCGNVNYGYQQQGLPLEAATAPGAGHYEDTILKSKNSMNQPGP

[2] = biological target: Ba/F3 cell-derived tumors with the EML4-ALK L1196M/G1202R fusion (Homo sapiens, UniProt Q9UM73, G1202R/L1196M)
[3] = biological target: T2, ALK (F1174C) (Homo sapiens, UniProt Q9UM73, F1174C); test: Biochemical kinase assay (Reaction Biology); details: 10 μM ATP
T2 construct: purchased Reaction Biology Corporation (contract assay)

[4] = biological target: T3, ALK (F1174S) (Homo sapiens, UniProt Q9UM73, F1174S); test: Biochemical kinase assay (Reaction Biology); details: 10 μM ATP
T3 construct: purchased Reaction Biology Corporation (contract assay)

[5] = biological target: T4, ALK (F1245C) (Homo sapiens, UniProt Q9UM73, F1245C); test: Biochemical kinase assay (Reaction Biology); details: 10 μM ATP
T4 construct: purchased Reaction Biology Corporation (contract assay)

[6] = biological target: T5, ALK (G1202R) (Homo sapiens, UniProt Q9UM73, G1202R); test: Biochemical kinase assay (Reaction Biology); details: 10 μM ATP
T5 construct: purchased Reaction Biology Corporation (contract assay)

[7] = biological target: T6, ALK (L1152R) (Homo sapiens, UniProt Q9UM73, L1152R); test: Biochemical kinase assay (Reaction Biology); details: 10 μM ATP
T6 construct: purchased Reaction Biology Corporation (contract assay)

[8] = biological target: T7, ALK (L1196M) (Homo sapiens, UniProt Q9UM73, L1196M); test: Biochemical kinase assay (Reaction Biology); details: 10 μM ATP
T7 construct: purchased Reaction Biology Corporation (contract assay)

[9] = biological target: T8, ALK (L1198F) (Homo sapiens, UniProt Q9UM73, L1198F); test: Biochemical kinase assay (Reaction Biology); details: 10 μM ATP
T8 construct: purchased Reaction Biology Corporation (contract assay)

[10] = biological target: T9, ALK (L1198F/L1196M) (Homo sapiens, UniProt Q9UM73, L1196M/L1198F); test: Biochemical kinase assay (Reaction Biology); details: 10 μM ATP
T9 construct: purchased Reaction Biology Corporation (contract assay)

[11] = 2, 5, 10 mg/kg BID, after 7 days of treatment

## CC1(C)COc2ccc(F)cc2CN2c3nc4c(cnn4cc3OC[C@H]2C(F)F)C(=O)N1 [Compound 1, (4S)-4-(Difluoromethyl)-8-fluoro-13,13-dimethyl-3,4,13,14-tetrahydro-6H-18,1-(metheno)[1,4]oxazino[3,4-i]pyrazolo[4,3-f][1,4,8,10]benzoxatriazacyclotridecin-15(12H)-one]
[1]; [11]
  body weight: no body weight loss
[1]; all three dose levels of 2, 5, and 10 mg/kg BID, after 7 days of treatment
  Tumor growth inhibition (TGI): 200%
[1]; all three groups (2, 5, 10 mg/kg BID), day 14 post inoculation
  tumor response at the end of study: complete regression
[2]; 0.6 mg/kg BID, after 7 days of treatment
  Tumor growth inhibition (TGI): 19%
[2]; 2 mg/kg BID, after 7 days of treatment
  Tumor growth inhibition (TGI): 44%
[2]; 5 mg/kg BID, after 7 days of treatment
  Tumor growth inhibition (TGI): 83%
[2]; 10 mg/kg BID, after 7 days of treatment
  Tumor growth inhibition (TGI): 200%
[2]; [11]
  body weight: no body weight loss
[2]; Compound 1 0.6 mg/kg BID or lorlatinib 5 mg/kg BID, day 14, p>0.05
  tumor growth compared with vehicle treated group: not significantly different

## O=C1NCC2(CC2)COc2ccc(F)cc2CN2c3nc4c1cnn4cc3OC[C@H]2C(F)F [Compound 2, (16′S)-16′-(Difluoromethyl)-12′-fluoro-4′H,5′H,6′H,8′H,14′H,16′H,17′H-spiro[cyclopropane-1,7′-[1,19](metheno)[1,4]oxazino[3,4-j]pyrazolo[4,3-g][1,5,9,11]benzoxatriazacyclotetradecin]-4′-one]
[3]
  IC50: 0.92 nM
[4]
  IC50: 0.76 nM
[5]
  IC50: 0.41 nM
[6]
  IC50: 0.74 nM
[7]
  IC50: 0.83 nM
[8]
  IC50: 0.18 nM
[9]
  IC50: 0.85 nM
[10]
  IC50: 0.1 nM
